{
  "source": "paper PMC6851657",
  "about": "(Clinical Pharmacology and Therapeutics, 2019)",
  "origin": "cited, not measured here",
  "conditions": "ref fluconazole SimCYP compound file V16; cited from earlier work",
  "data": [
    {"smiles": "OC(Cn1cncn1)(Cn1cncn1)c1ccc(F)cc1F", "note": "[Fluconazole, fluconazole]", "values": [
      {"measurement": "CL following i.v. administration", "result": 1.01, "unit": "L/h"},
      {"measurement": "In vivo renal clearance in a 20–30 year healthy man", "result": 0.7, "unit": "L/h"},
      {"measurement": "Volume of distribution at steady state", "result": 0.748, "unit": "L/kg"}
    ]}
  ]
}
